Consider one compound from patent publication US10207011B2, “Methods, systems, and devices for an invertebrate model of traumatic brain injury” (WISCONSIN ALUMNI RESEARCH FOUNDATION, priority 2013, dated 2019).

Each structure is given as a SMILES string.

The assay concerns w^1118 flies. Description: Mortality after standard TBI protocol in aspirin-fed flies. Format: in vivo, Drosophila. The conditions noted are these: 0-3-day old w^1118 flies cultured four days on food with 0.4 ml aspirin (200 mg/ml in DMSO) before standard TBI protocol; FIG. 5. The source says:
Based on the data described in Example 2, we designed a standard TBI protocol for administering controlled impacts to generate primary injuries. The standard TBI protocol consisted of four impacts with five min recovery intervals between impacts. Reproducibility and rapidity were the driving forces behind the choice of protocol parameters. […] As a proof of concept for identifying an agent that could reduce the severity of an impact-associated phenotype, e.g., lethality, we tested whether, the non-steroidal anti-inflammatory drug, aspirin, affects TBI outcomes. Flies were treated with aspirin by feeding and then subjected to the standard TBI protocol. 0.4 ml of aspirin (200 mg/ml in DMSO) or DMSO only was added to vials with food and allowed to absorb into the food for two hours. 0-3-day old w^1118 flies, with an approximately equal number of male and female flies, were cultured on the food for four days. Flies were then left untreated or subjected to the standard TBI protocol. […] Thus, aspirin pre-treatment raises the primary injury threshold.

For the compound `CC(=O)Oc1ccccc1C(=O)O` [aspirin], the “mortality 24 hours after a controlled impact, relative to DMSO-treated flies” value is given as “lower mortality than the DMSO-treated flies”.
